Assays:
[1] = tested on: meningococcal colonization of the human dermal vasculature; assay: In vivo meningococcal infection of mice engrafted with human skin
[2] = tested on: Nm2C4.3 microcolonies on HBMEC, human bone marrow endothelial cell line; assay: Dispersion of meningococcal microcolonies on HBMEC (vascular colonisation index); assay type: cell-based, Neisseria meningitidis; conditions: 30 min, Trifluoperazine 10-40 μM, Gentamicin 150 μg/ml, Cefotaxim 20 μg/ml
Protocol: Human […] microvascular endothelial cells (HBMEC) were infected with Nm2C4.3 for 1 h 30, treated with Trifluoperazine (10-40 μM) for 30 minutes, before fixation and immunofluorescence analysis using anti-Nm2C4.3 antibody and Alexa Fluor 633 Phalloidin. (A) Representative fluorescence microscopy showing bacterial colony (white dots) formed at the surface of the endothelial cells. (B) Quantification of the bacterial colonization was performed using Image J software.
HBMEC, a human endothelial cell line isolated from […] capillaries (Schweitzer et al., 1997) were grown in Dulbecco's Modified Eagle Medium (DMEM) 4.5 g/L-Glutamax (ThermoFischer) 10% FBS. Cells were grown on Thermanox coverslips coated with gelatin 2% (BD Difco #214340) for 2 days to reach confluency. Cells were then infected with a suspension of Nm2C4.3 (˜10^7 CFU/ml) in DMEM/FBS during 30 minutes to allow bacterial adhesion. Cells were then washed three times with medium to remove non-adherent bacteria and infection was pursued for 1 h 30: adherent bacteria grew at the endothelial cell surface and formed micro-colonies. Trifluoperazine was then added to obtain final concentrations of 10, 20, 30 and 40 μM. After incubation for 30 minutes, cells were washed and fixed in 4% Paraformaldehyde for 10 min, washed three times with PBS, and permeabilized with 0.1% Triton X-100 in PBS for 10 min. Cells were blocked for 30 min with 3% BSA in PBS and were incubated for 2 h with the primary antibodies (Rabbit polyclonal anti-Nm2C4.3 strain, kindly provided by Dr X. Nassif, INEM, Paris). After three washes with PBS, cells were incubated for 1 h with […] anti-rabbit IgG (Jackson ImmunoResearch Laboratories), together with Alexa Fluor 633 Phalloidin (Thermofischer) and DAPI ([…], Sigma Aldrich) to stain Actin and nuclei, respectively. Labelled preparations were mounted in Glycergel media (DAKO) and image acquisitions were performed with a DM16000 microscope (Leica, X40). Quantification was done with ImageJ software (NIH). […]

[3] = tested on: N. meningitidis 2C4.3 aggregates; assay type: cell-based, Neisseria meningitidis; conditions: for effect on dispersion of meningococcal aggregates: 0.5 to 80 μM, 30 min
Protocol: N. meningitidis 2C4.3 was grown in liquid culture at 10^7 CFU/ml for 2 h to form bacterial aggregates and were treated with increasing concentrations of Trifluoperazine (10 to 40 μM), Gentamicin (150 μg/ml) or cefotaxim (20 μg/ml) for 20 minutes and bacterial aggregates were immediately visualized using a phase-contrast microscope. […] (B) Quantification of the bacterial aggregation was performed using Image J software.
N. meningitidis 2C4.3 wild type strain and the isogenic derivative mutant PilT ([…]PiIT) were grown in liquid culture at 10^7 CFU/ml for 2 h to form bacterial aggregates and then treated with 50 μM Trifluoperazine. Time lapse phase-contrast video microscopy was performed to visualize the effect on bacterial aggregates over time. Images were taken at the indicated time points of the video.
N. meningitidis 2C4.3 was grown in liquid culture at 10^7 CFU/ml for 2 h to form bacterial aggregates and were treated with 30 μM Trifluoperazine for 30 minutes to induce bacterial dispersion or PBS as a control. The medium was replaced to remove the Trifluoperazine and the reformation of bacterial aggregates were visualized overtime using a phase-contrast microscope.
Bacteria were grown in suspension for 2 h then Phenothiazine derivatives were added at the indicated concentrations.
N. meninigitidis 2C4.3 strain was grown in suspension in wells of a 24 well plate, containing 1 ml of DMEM medium supplemented with 10% heat-inactivated fetal calf serum. After 2 h of growth, Trifluoperazine (or control vehicle) was added at various concentrations ranging from 10 to 40 μM for 20 min and the bacterial aggregates were visualized over time using a phase-contrast microscope.
N. meninigitidis 2C4.3 strain was grown in suspension in wells of a 24 well plate, containing 1 ml of DMEM medium supplemented with 10% heat-inactivated fetal calf serum. After 2 h of growth, various concentrations (0.5 to 80 μM) of phenothiazine-derivative compounds or control vehicle (PBS or DMSO) were added to the wells for 30 min and the bacterial aggregates were visualized using a phase-contrast microscope. Were tested phenothiazine-derivative compounds of: • the Piperazine group: Trifluoperazine (Sigma #T8516), Fluphenazine (Sigma #F4765), Prochlorperazine (Sigma #P9178) Perphenazine (Sigma #P6402); • the Piperidine group: Thioridazine (Sigma #T9025) and Mesoridazin (Sigma #M4068); • the Aliphatic group: Chlorpromazine (Sigma #C8138), Promazine (Sigma #P6656), Triflupromazine (Sigma #1686003) and levomepromazine (Sigma #L0500000).

CO/N=C(\C(=O)N[C@@H]1C(=O)N2C(C(=O)O)=C(COC(C)=O)CS[C@H]12)c1csc(N)n1 [Cefotaxim]
increase of inflammatory response [1]: 2 fold
dispersion of compact meningococcal microcolonies established at the endothelial cell surface [2]: poorly induced the dispersion
dispersion of bacterial aggregates formed in suspension ([3]; aggregates pre-formed 2 h, 20 min, Trifluoperazine 10-40 μM, Gentamicin 150 μg/ml, Cefotaxim 20 μg/ml): did not significantly induce the dispersion

CN(C)CCCN1c2ccccc2Sc2ccc(C(F)(F)F)cc21 [Triflupromazine]
effect on dispersion of meningococcal aggregates [3]: no effects

COc1ccc2c(c1)N(C[C@H](C)CN(C)C)c1ccccc1S2 [Levomepromazine]
effect on dispersion of meningococcal aggregates [3]: no effects

CN(C)CCCN1c2ccccc2Sc2ccccc21 [Promazine]
effect on dispersion of meningococcal aggregates [3]: inhibited bacterial aggregation with better efficacy than Trifluoperazine

CN(C)CCCN1c2ccccc2Sc2ccc(Cl)cc21 [Chlorpromazine]
effect on dispersion of meningococcal aggregates [3]: no effects

From US20200222418A1, “USE OF PHENOTHIAZINE DERIVATIVE IN THE TREATMENT OF INFECTION CAUSED BY BACTERIA CARRYING TYPE IV PILI” (priority 2017, published 2020)
